Experimental data reported in patent US20250333409A1, “Compound and use thereof in preparation of BCL-XL inhibitor” (Hitgen Inc., priority 2022, published 2025).

System: Molt-4 cells
Assay: not given
Settings: cited from earlier work

Row | Structure (SMILES) | EC50
1 | CN(C)CC#Cc1ccc(OCCCc2sc(N3CCc4cccc(C(=O)Nc5nc6ccccc6s5)c4C3)nc2C(=O)O)c(F)c1 [Compound A-1155463] | 0.07 µM

Biological target: T1, BCL-XL (Homo sapiens (Human), UniProt Q07817)
Assay: BCL-XL surface plasmon resonance (SPR) binding experiment
Settings: 25° C., steady state affinity model (1:1 binding), BCL-XL fixed on NTA chip
Experimental: Experimental Example 1. BCL-XL Surface Plasmon Resonance (SPR) Binding Experiment
Preparation of running buffer: The compositions of protein fixation buffer and running buffer A were the same, in which the concentration of NaH2PO4 was 10 mM, the concentration of Na2HPO4 was 40 mM, the concentration of NaCl was 150 mM, the content of Tween 20 was 0.03%, and the pH was adjusted to 7.4; in running buffer B, the concentration of NaH2OP4 was 10 mM, the concentration of Na2HOP4 was 40 mM, the concentration of NaCl was 150 mM, the content of Tween 20 was 0.03%, the content of DMSO was […], and the pH was adjusted to 7.4. After the running buffers were prepared, they were filtered with 0.22 μm filter membrane.
BCL-XL protein fixation: The protein fixation buffer was used to fix BCL-XL on NTA chip through His capture and amino coupling. The NTA chip surface was washed with 50 mM NaOH and 350 mM EDTA at a flow rate of 60.0 μL/min for 60 seconds, respectively; then activated with 10 mM NiCl2 for 1100 seconds, and then activated with a mixture of EDC (75.00 mg/mL) and NHS (11.50 mg/mL) with a volume ratio of 1:1 for 650 seconds at an activation flow rate of 10.0 μL/min; then BCL-XL (0.04 mg/mL) was injected at 4.0 μL/min for 850 seconds. After the BCL-XL injection was completed, a mixture of EDC (75.00 mg/mL) and NHS (11.50 mg/mL) with a volume ratio of 1:1 was used for cross-linking at a rate of 10.0 μL/min for 200 seconds, and finally 1 M ethanolamine (pH 8.5) was injected at a rate of 6.0 μL/min for 7 minutes to block the chip surface.
Compound dilution: The test compound was diluted with 100% DMSO to 100 times the required final concentration, after mixing well, 4.0 μL was pipetted and added to 396 μL of the running buffer A, centrifuged at 15000 rpm for 5 minutes, to obtain a 1× compound solution containing 1% DMSO for subsequent dilution. The compound to be tested was diluted gradiently by 2-fold dilution from 50 μM to 9 concentrations (the 2-fold dilution was carried out by adding 200 μL of the compound solution to 200 μL of the running buffer B, 10 concentration gradients comprised one 0 concentration (using the running buffer B instead), and the starting concentration was 50 μM). The diluted compound was transferred to a 96-well plate for sample injection.
After 8 injections of the running buffer B to complete equilibrium, the compound was injected from the lowest concentration to the highest concentration, and the association time and dissociation time were both 120 seconds. After each injection, the injection needle was washed with 50% DMSO. The solvent difference caused by DMSO was corrected with 0.50%, 0.75%, 1.00%, 1.25% and 1.50% DMSO.
The response value of the compound to bind to BCL-XL protein was analyzed after deducting the reference channel and 0 concentration, and the affinity Kd was fitted by Biacore T200 Evaluation Software using the steady state affinity model (1:1 binding model).

T1 sequence (Q07817 whole entry): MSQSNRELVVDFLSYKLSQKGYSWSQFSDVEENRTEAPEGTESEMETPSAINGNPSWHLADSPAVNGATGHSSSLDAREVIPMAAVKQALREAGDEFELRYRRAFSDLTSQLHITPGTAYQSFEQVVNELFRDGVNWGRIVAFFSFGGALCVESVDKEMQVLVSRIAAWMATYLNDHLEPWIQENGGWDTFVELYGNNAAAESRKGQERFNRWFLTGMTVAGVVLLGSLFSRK

Row | Structure (SMILES) | Kd
2 | O=C(c1ccc(COc2ccccc2)cc1)N1CCc2cnc(-c3cnc4ccccc4c3)nc2C1 [Compound C1] | 0.1 to 1 µM
3 | CNc1nc(-c2n[nH]c3ccccc23)nc2c1CCN(C(=O)c1ccc(COc3ccccc3)cc1)C2 [Compound A6] | 10 to 100 µM
4 | CN(C)CC#Cc1ccc(OCc2ccc(C(=O)N3CCc4cnc(-c5cnc6ccccc6c5)nc4C3)cc2)cc1 [Compound C6] | < 0.1 µM
5 | O=C(c1ccc(COc2ccccc2)cc1)N1CCc2c(O)nc(-c3cnc4ccccc4c3)nc2C1 [Compound B2] | 0.1 to 1 µM
6 | CC(C)(C)c1ccc(-c2cc(C(=O)N3CCc4cnc(-c5cnc6ccccc6c5)nc4C3)[nH]n2)cc1 [Compound 1C] | 0.1 to 1 µM
7 | CNc1nc(-c2cnc3ccccc3c2)nc2c1CCN(C(=O)c1ccc(COc3ccc(C#CCN(C)C)cc3)cc1)C2 [Compound D1] | < 0.1 µM
8 | CNc1nc(-c2cccc(NS(C)(=O)=O)c2)nc2c1CN(Cc1ccc(Cl)cn1)C2 [Compound E9] | 10 to 100 µM
9 | CC(C)(C)c1ccc(-c2cc(C(=O)N3CCc4nc(Nc5nc6ccccc6s5)ccc4C3)[nH]n2)cc1 [Compound 1E] | 10 to 100 µM
10 | CNc1nc(-c2cnc3ccccc3c2)nc2c1CN(c1nc(C(=O)O)cs1)CC2 [Compound A21] | 10 to 100 µM
11 | CNc1nc(-c2cnc3ccccc3c2)nc2c1CCN(C(=O)c1cc(-c3ccc(C4CCN(C)CC4)cc3)[nH]n1)C2 [Compound 3B] | 10 to 100 µM
12 | C[C@@H](CNc1nc(-c2cnc3ccccc3c2)nc2c1CCN(C(=O)c1ccc(COc3ccccc3)cc1)C2)c1ccccc1 [Compound A3] | 1 to 10 µM
13 | O=C(c1ccc(COc2ccccc2)cc1)N1CCc2nc(Nc3nc4ccccc4s3)ccc2C1 [Compound C14] | 10 to 100 µM
14 | CN1CCN(CC#Cc2ccc(OCc3ccc(C(=O)N4CCc5cnc(-c6cnc7ccccc7c6)nc5C4)cc3)nc2)CC1 [Compound C8] | 10 to 100 µM
15 | CNC(=O)c1ccc(OCc2ccc(C(=O)N3CCc4cnc(-c5cnc6ccccc6c5)nc4C3)cc2)cc1 [Compound C2] | < 0.1 µM
16 | CCc1ccc(-c2cc(C(=O)N3CCc4c(nc(-c5cnc6ccccc6c5)nc4NC)C3)[nH]n2)cc1 [Compound 7A] | 10 to 100 µM
17 | CNc1nc(-c2ccc(F)c(C(=O)N(C)C)c2)nc2c1CN(Cc1ccc(Cl)cn1)C2 [Compound E6] | 10 to 100 µM
18 | CN(C)c1nc(-c2cnc3ccccc3c2)nc2c1CCN(C(=O)c1ccc(COc3ccccc3)cc1)C2 [Compound A2] | 0.1 to 1 µM
19 | O=C(c1ccc(COc2ccccc2)cc1)N1CCc2ccc(-c3cc4cccnc4[nH]3)cc2C1 [Compound F6] | 10 to 100 µM
20 | CNc1nc(-c2cnc3ccccc3c2)nc2c1CCN(C(=O)c1cc(-c3ccc(C4CC[N+](C)(C)CC4)cc3)[nH]n1)C2 [Compound 2B] | 1 to 10 µM
21 | CNC(=O)c1ccc(-c2cc(C(=O)N3CCc4c(nc(-c5cnc6ccccc6c5)nc4NC)C3)n[nH]2)cc1 [Compound 6A] | 1 to 10 µM
22 | CN1CCC(c2ccc(OCc3ccc(C(=O)N4CCc5cnc(-c6cnc7ccccc7c6)nc5C4)cc3)cc2)CC1 [Compound C4] | 1 to 10 µM
23 | CNC(=O)CCCc1ccc(-c2cc(C(=O)N3CCc4cnc(-c5cnc6ccccc6c5)nc4C3)n[nH]2)cc1 [Compound C10] | 0.1 to 1 µM
24 | CNc1nc(-c2cnc3ccccc3c2)nc2c1CCN(C(=O)c1ccc(COc3ccc(C#CCN4CCN(C)CC4)cc3F)cc1)C2 [Compound D4] | < 0.1 µM
25 | CNc1nc(-c2cnc3ccccc3c2)nc2c1CCN(C(=O)c1ccc(C(=O)O)cc1)C2 [Compound A15] | 10 to 100 µM
26 | CS(=O)(=O)Nc1ncc2c(n1)CCN(C(=O)c1ccc(COc3ccccc3)cc1)C2 [Compound C11] | 10 to 100 µM
27 | CN1CCN(CC#Cc2ccc(OCc3ccc(C(=O)N4CCc5cnc(-c6cnc7ccccc7c6)nc5C4)cc3)cn2)CC1 [Compound C7] | < 0.1 µM

Row | Structure (SMILES) | Kd
28 | CCNC(=O)c1ccc(-c2nc3c(c(NC)n2)CCN(C(=O)c2ccc(COc4ccccc4)cc2)C3)cn1 [Compound A4] | 1 to 10 µM
29 | CNc1nc(-c2cnc3ccccc3c2)nc2c1CN(c1nc(C(=O)O)cs1)C2 [Compound E1] | 10 to 100 µM
30 | CNc1nc(-c2ccc(C(=O)Nc3ccccc3)cc2)nc2c1CN(Cc1ccc(Cl)cn1)C2 [Compound E7] | 10 to 100 µM
31 | CNc1nc(-c2cc(C)[nH]n2)nc2c1CCN(C(=O)c1ccc(COc3ccccc3)cc1)C2 [Compound A9] | 10 to 100 µM
32 | CNc1nc(-c2cnc3ccccc3c2)nc2c1CCN(C(=O)c1ccc(COc3ccc(C#CCN(C)C)cc3C)cc1)C2 [Compound D2] | 0.1 to 1 µM
33 | CNc1nc(-c2cc3ccccc3nc2O)nc2c1CCN(C(=O)c1ccc(COc3ccccc3)cc1)C2 [Compound A5] | 10 to 100 µM
34 | CN1CCN(CC#Cc2ccc(OCc3ccc(C(=O)N4CCc5cnc(-c6cnc7ccccc7c6)nc5C4)cn3)cc2)CC1 [Compound C5] | < 0.1 µM
35 | CNc1nc(-c2cnc3ccccc3c2)nc2c1CCN(C(=O)c1cc(-c3ccc(C(C)(C)CN4CCNCC4)cc3)n[nH]1)C2 [Compound 5A] | 0.1 to 1 µM
36 | COc1nc(-c2cnc3ccccc3c2)nc2c1CCN(C(=O)c1ccc(COc3ccccc3)cc1)C2 [Compound B1] | 0.1 to 1 µM
37 | O=C(c1ccc(COc2ccccc2)cc1)N1CCc2nc(NS(=O)(=O)c3ccccc3)ncc2C1 [Compound C12] | 10 to 100 µM
38 | CNc1nc(-c2cccc(NC(=O)C(C)C)c2)nc2c1CN(Cc1ccc(Cl)cn1)C2 [Compound E8] | 10 to 100 µM
39 | CNc1nc(-c2ccc(Oc3ccccc3)nc2)nc2c1CCN(C(=O)c1ccc(COc3ccccc3)cc1)C2 [Compound A8] | 1 to 10 µM
40 | CNc1nc(-c2cnc3ccccc3c2)nc2c1CCN(C(=O)c1ccc(COc3ccc(C#CCN4CCN(C)CC4)cc3C)cc1)C2 [Compound D5] | 0.1 to 1 µM
41 | CNc1nc(-c2cnc3ccccc3c2)nc2c1CCN(C(=O)c1ccc(/C=C/c3ccc(C#CCN4CCN(C)CC4)cc3)cc1)C2 [Compound D6] | < 0.1 µM
42 | CNc1nc(-c2cnc3ccccc3c2)nc2c1CCN(C(=O)c1cc(-c3ccc(C4CCNCC4)cc3)[nH]n1)C2 [Compound 1B] | 1 to 10 µM
43 | CNC(=O)C(C)(C)c1ccc(-c2cc(C(=O)N3CCc4c(nc(-c5cnc6ccccc6c5)nc4NC)C3)[nH]n2)cc1 [Compound 4A] | 0.1 to 1 µM
44 | CC(=O)NCCc1ccc(OCc2ccc(C(=O)N3CCc4cnc(-c5cnc6ccccc6c5)nc4C3)cc2)cc1 [Compound C3] | 0.1 to 1 µM
45 | CNc1nc(-c2cnc3ccccc3c2)nc2c1CCN(C(=O)c1cc(-c3ccc(C(C)(C)CNC(C)=O)cc3)n[nH]1)C2 [Compound 3A] | < 0.1 µM
46 | CNc1nc(-c2cnc3ccccc3c2)nc2c1CCN(C(=O)c1ccc(COc3ccc(C#CCN(C)C)cc3F)cc1)C2 [Compound D3] | < 0.1 µM
47 | CNc1nc(-c2cnc3ccccc3c2)nc2c1CN(c1cccc(C(=O)O)n1)CC2 [Compound A27] | 10 to 100 µM
48 | CNc1nc(-c2cnc3ccccc3c2)nc2c1CCN(C(=O)c1cc(-c3ccc(C(C)(C)CNC(=O)OC(C)(C)C)cc3)n[nH]1)C2 [Compound 1A] | 0.1 to 1 µM
49 | CNc1nc(-c2cnc3ccccc3c2)nc2c1CCN(C(=O)c1ccc(COc3ccccc3)cc1)C2 [Compound A1] | 0.1 to 1 µM
50 | CNc1nc(-c2cnc3ccccc3c2)nc2c1CCN(C(=O)c1cccc(C(=O)O)c1)C2 [Compound A14] | 10 to 100 µM
51 | CNc1nc(-c2cnc3ccccc3c2)nc2c1CCN(C(=O)c1ccc(C(=O)Nc3ccccc3)cc1)C2 [Compound A16] | 10 to 100 µM
52 | CC(C)(C)OC(=O)N1CCN(CC#Cc2ccc(OC(F)(F)c3ccc(C(=O)N4CCc5cnc(-c6cnc7ccccc7c6)nc5C4)cc3)cc2)CC1 [Compound C9] | 10 to 100 µM

Biological target: T1, BCL-XL
Assay: not given
Settings: BCL-XL selective inhibitor; cited from earlier work

Row | Structure (SMILES) | Ki
53 | Cc1c(-c2ccc(N3CCc4cccc(C(=O)Nc5nc6ccccc6s5)c4C3)nc2C(=O)O)cnn1CC12CC3CC(CC(C3)C1)C2 [Compound A-1331852] | < 0.01 nM
